34 molecules from ChEMBL document CHEMBL1156053, “Design, synthesis, protein-ligand X-ray structure, and biological evaluation of a series of novel macrocyclic human immunodeficiency virus-1 protease inhibitors to combat drug resistance” (J Med Chem, 2009) can be followed below.

The subject of experiment [1] is Human immunodeficiency virus 1. Kind of experiment: Antiviral activity against multidrug-resistant HIV1 isolate C infected in PHA-stimulated human PBMC assessed as inhibition of p24 […] protein production. Format: functional, organism-based. As to conditions: Human immunodeficiency virus 1, isolate C.
In experiment [2] the test system is Human immunodeficiency virus 1. Kind of experiment: Antiviral activity against multidrug-resistant HIV1 isolate JSL infected in PHA-stimulated human PBMC assessed as inhibition of p24 […] protein production. Format: functional, organism-based. As to conditions: Human immunodeficiency virus 1, isolate JSL.
The test system of experiment [3] is Human immunodeficiency virus 1. Kind of experiment: Antiviral activity against multidrug-resistant HIV1 isolate B infected in PHA-stimulated human PBMC assessed as inhibition of p24 […] protein production. Format: functional, organism-based. As to conditions: Human immunodeficiency virus 1, isolate B.
Experiment [4] relates to Human immunodeficiency virus 1. Kind of experiment: Antiviral activity against multidrug-resistant HIV1 isolate MM infected in PHA-stimulated human PBMC assessed as inhibition of p24 […] protein production. Format: functional, organism-based. As to conditions: Human immunodeficiency virus 1, isolate MM.
Experiment [5] deals with Human immunodeficiency virus 1. Kind of experiment: Antiviral activity against multidrug-resistant HIV1 isolate TM infected in PHA-stimulated human PBMC assessed as inhibition of p24 […] protein production. Format: functional, organism-based. As to conditions: Human immunodeficiency virus 1, isolate TM.
Experiment [6] concerns Human immunodeficiency virus 1. Kind of experiment: Antiviral activity against multidrug-resistant HIV1 isolate G infected in PHA-stimulated human PBMC assessed as inhibition of p24 […] protein production. Format: functional, organism-based. Conditions: Human immunodeficiency virus 1, isolate G.
For experiment [7], the system named is Human immunodeficiency virus 1. Kind of experiment: Antiviral activity against wild type HIV1 isolate ERS104pre infected in PHA-stimulated human PBMC assessed as inhibition of p24 […] protein production. Format: functional, organism-based. Conditions: Human immunodeficiency virus 1, isolate ERS104pre.
In experiment [8] the test system is Human immunodeficiency virus 1. Kind of experiment: Antiviral activity against HIV1 LAI infected in human MT2 cells by MTT assay. Format: functional, organism-based. Conditions: Human immunodeficiency virus 1, M:B_Lai. For orientation: Tetrazolium dyes change colour on reduction, which living cells bring about.
The test system of experiment [9] is Human immunodeficiency virus 1. Kind of experiment: Selectivity ratio of IC50 for multidrug-resistant HIV1 isolate JSL to IC50 for wild type HIV1 isolate ERS104pre. Format: functional.
The subject of experiment [10] is Human immunodeficiency virus 1. Kind of experiment: Selectivity ratio of IC50 for multidrug-resistant HIV1 isolate MM to IC50 for wild type HIV1 isolate ERS104pre. Format: functional.
In experiment [11] the test system is Human immunodeficiency virus 1. Kind of experiment: Selectivity ratio of IC50 for multidrug-resistant HIV1 isolate TM to IC50 for wild type HIV1 isolate ERS104pre. Format: functional.
For experiment [12], the system named is Human immunodeficiency virus 1. Kind of experiment: Selectivity ratio of IC50 for multidrug-resistant HIV1 isolate G to IC50 for wild type HIV1 isolate ERS104pre. Format: functional.
Experiment [13] concerns Human immunodeficiency virus 1. Kind of experiment: Selectivity ratio of IC50 for multidrug-resistant HIV1 isolate C to IC50 for wild type HIV1 isolate ERS104pre. Format: functional.
Experiment [14] concerns Human immunodeficiency virus 1. Kind of experiment: Selectivity ratio of IC50 for multidrug-resistant HIV1 isolate B to IC50 for wild type HIV1 isolate ERS104pre. Format: functional.
For another experiment, the target named is Protease (Human immunodeficiency virus 1, UniProt Q9YQ12). Kind of experiment: Inhibition of HIV1 protease.
Sequence of Protease (Q9YQ12 whole entry): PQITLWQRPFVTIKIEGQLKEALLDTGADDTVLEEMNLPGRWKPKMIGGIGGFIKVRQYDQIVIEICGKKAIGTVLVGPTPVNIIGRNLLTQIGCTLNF

By IC50 is commonly meant the point on the concentration scale where inhibition reaches its midpoint. Take `CC(C)(C)NC(=O)[C@@H]1C[C@@H]2CCCC[C@@H]2CN1C[C@@H](O)[C@H](Cc1ccccc1)NC(=O)[C@H](CC(N)=O)NC(=O)c1ccc2ccccc2n1`: the IC50 in [1] was 32 nM; in experiment [2], 300 nM; in experiment [3] it was 270 nM; in experiment [4], 190 nM; in [5] it was 260 nM; in experiment [6] it was 30 nM. Further, the IC50 in experiment [7] was determined as 8 nM.
Regarding `CC(C)CN(C[C@@H](O)[C@H](Cc1ccccc1)NC(=O)O[C@H]1CCOC1)S(=O)(=O)c1ccc(N)cc1`, the IC50 in experiment [1] was 370 nM; in [2], 620 nM; in experiment [3] it was above 1000 nM; in [4], 210 nM; in experiment [5], 320 nM; in experiment [6] it was 430 nM. Further, the IC50 in experiment [7] was 30 nM.
`COc1ccc(S(=O)(=O)N(CC(C)C)C[C@@H](O)[C@H](Cc2ccccc2)NC(=O)O[C@H]2CO[C@H]3OCC[C@H]32)cc1` came in with an IC50 in [8] of 1.2 nM.
Turning to `CC(C)(C)NC(=O)[C@@H]1CN(Cc2cccnc2)CCN1C[C@@H](O)C[C@@H](Cc1ccccc1)C(=O)N[C@H]1c2ccccc2C[C@H]1O.O`, the “Ratio IC50” value in [9] is above 23; in experiment [10] it was above 23; in [11], above 23; in [12], 5; in [13], above 23; in experiment [14], above 23. Besides, the half-inhibitory concentration (IC50) in experiment [1] is above 1000 nM; in experiment [2], above 1000 nM; in [3], above 1000 nM; in [4] it was above 1000 nM; in experiment [5], above 1000 nM; in [6], 340 nM. The IC50 in experiment [7] was found to be 43 nM.
One may read the Ki as the equilibrium dissociation constant of an inhibitor or competing ligand from its target. `C=CCCCOc1cc(OC)ccc1S(=O)(=O)N(CC=C)C[C@@H](O)[C@H](Cc1ccccc1)NC(=O)O[C@H]1CO[C@H]2OCC[C@H]21` yielded a Ki at Protease of 1.02 nM. The IC50 in experiment [8] was found to be 290 nM.
For `COc1ccc2c(c1)OCCCCCCCN(C[C@@H](O)[C@H](Cc1ccccc1)NC(=O)O[C@H]1CO[C@H]3OCC[C@H]31)S2(=O)=O`, in that order: 0.017 nM and 14 nM.
The like results for `COc1ccc2c(c1)OCCCCCN(C[C@@H](O)[C@H](Cc1ccccc1)NC(=O)O[C@H]1CO[C@H]3OCC[C@H]31)S2(=O)=O` were, in that order, 0.09 nM and 5.5 nM.
The like results for `COc1ccc2c(c1)OCCCCCCCC(C)(C)CN(C[C@@H](O)[C@H](Cc1ccccc1)NC(=O)O[C@H]1CO[C@H]3OCC[C@H]31)S2(=O)=O` were, in that order, 6.8 nM and above 1000 nM.
With `C=CCCCCN(C[C@@H](O)[C@H](Cc1ccccc1)NC(=O)O[C@H]1CO[C@H]2OCC[C@H]21)S(=O)(=O)c1ccc(OC)cc1OCCCC=C`, the Ki on Protease was found to be 11.5 nM. In [8], this molecule yielded a half-inhibitory concentration (IC50) above 1000 nM.
`C=CCCCCN(C[C@@H](O)[C@H](Cc1ccccc1)NC(=O)O[C@H]1CO[C@H]2OCC[C@H]21)S(=O)(=O)c1ccc(OC)cc1OCCC=C` gave a Ki at Protease of 6.9 nM.
`COc1ccc2c(c1)OCCCCCCCCCN(C[C@@H](O)[C@H](Cc1ccccc1)NC(=O)O[C@H]1CO[C@H]3OCC[C@H]31)S2(=O)=O` showed a Ki on Protease of 0.67 nM. The IC50 in [8] stood at 49 nM.
In turn, `COc1ccc2c(c1)OC/C=C\CN(C[C@@H](O)[C@H](Cc1ccccc1)NC(=O)O[C@H]1CO[C@H]3OCC[C@H]31)S2(=O)=O` gave a Ki at Protease of 2.4 nM.
`C=CCCCCOc1cc(OC)ccc1S(=O)(=O)N(CC=C)C[C@@H](O)[C@H](Cc1ccccc1)NC(=O)O[C@H]1CO[C@H]2OCC[C@H]21` yielded a Ki at Protease of 1.7 nM. The molecule also gave an IC50 in [8] of 270 nM.
For `COc1ccc2c(c1)OCCCCCCCCN(C[C@@H](O)[C@H](Cc1ccccc1)NC(=O)O[C@H]1CO[C@H]3OCC[C@H]31)S2(=O)=O`, in that order: 0.47 nM and 22 nM.
On to `COc1ccc2c(c1)OCCCCCCN(C[C@@H](O)[C@H](Cc1ccccc1)NC(=O)O[C@H]1CO[C@H]3OCC[C@H]31)S2(=O)=O`, for which the Ki at Protease was found to be 0.15 nM. Further, the IC50 in experiment [8] was determined as 95 nM.
For the molecule `C=CCCCCOc1cc(OC)ccc1S(=O)(=O)N(CC(C)CC=C)C[C@@H](O)[C@H](Cc1ccccc1)NC(=O)O[C@H]1CO[C@H]2OCC[C@H]21` (stereo partly drawn), the Ki on Protease stood at 15 nM. Also, in [8], half-maximal inhibition (IC50) required 380 nM.
For `C=CCCCCOc1cc(OC)ccc1S(=O)(=O)N(C[C@@H](C)CC=C)C[C@@H](O)[C@H](Cc1ccccc1)NC(=O)O[C@H]1CO[C@H]2OCC[C@H]21`, in that order: 58 nM and above 1000 nM.
The like results for `COc1ccc2c(c1)OC/C=C\CCCCN(C[C@@H](O)[C@H](Cc1ccccc1)NC(=O)O[C@H]1CO[C@H]3OCC[C@H]31)S2(=O)=O` were, in that order, 0.058 nM and 14 nM.
For `COc1ccc2c(c1)OCCCC/C=C\CN(C[C@@H](O)[C@H](Cc1ccccc1)NC(=O)O[C@H]1CO[C@H]3OCC[C@H]31)S2(=O)=O`, in that order: 0.08 nM and 23 nM.
On to `COc1ccc2c(c1)OCCC/C=C\CN(C[C@@H](O)[C@H](Cc1ccccc1)NC(=O)O[C@H]1CO[C@H]3OCC[C@H]31)S2(=O)=O`, for which the Ki at Protease came to 0.077 nM. Moreover, inhibition in [8] was half-maximal at 20 nM (IC50).
The like results for `COc1ccc2c(c1)OCC/C=C\CN(C[C@@H](O)[C@H](Cc1ccccc1)NC(=O)O[C@H]1CO[C@H]3OCC[C@H]31)S2(=O)=O` were, in that order, 0.051 nM and 15 nM.
For `C=CCCCCOc1cc(OC)ccc1S(=O)(=O)N(C[C@@H](O)[C@H](Cc1ccccc1)NC(=O)O[C@H]1CO[C@H]2OCC[C@H]21)CC(C)(C)CC=C`, in that order: 82 nM and above 1000 nM.
The like results for `COc1ccc2c(c1)OCCC/C=C/CCC(C)(C)CN(C[C@@H](O)[C@H](Cc1ccccc1)NC(=O)O[C@H]1CO[C@H]3OCC[C@H]31)S2(=O)=O` were, in that order, 6.9 nM and above 1000 nM.
Take `C=CCCCCOc1cc(OC)ccc1S(=O)(=O)N(CCCCC=C)C[C@@H](O)[C@H](Cc1ccccc1)NC(=O)O[C@H]1CO[C@H]2OCC[C@H]21`: at Protease, the Ki was 16.5 nM. In experiment [8], this molecule returned an IC50 above 1000 nM.
On to `C=CCCCCN(C[C@@H](O)[C@H](Cc1ccccc1)NC(=O)O[C@H]1CO[C@H]2OCC[C@H]21)S(=O)(=O)c1ccc(OC)cc1OCC=C`, for which affinity at Protease was put at a Ki of 10 nM.
On the same count and under the same terms, to `C=CCCOc1cc(OC)ccc1S(=O)(=O)N(CC=C)C[C@@H](O)[C@H](Cc1ccccc1)NC(=O)O[C@H]1CO[C@H]2OCC[C@H]21` belongs 0.63 nM; to `C=CCOc1cc(OC)ccc1S(=O)(=O)N(CC=C)C[C@@H](O)[C@H](Cc1ccccc1)NC(=O)O[C@H]1CO[C@H]2OCC[C@H]21`, 0.1 nM.
In turn, `COc1ccc2c(c1)OCCC/C=C\CC[C@@H](C)CN(C[C@@H](O)[C@H](Cc1ccccc1)NC(=O)O[C@H]1CO[C@H]3OCC[C@H]31)S2(=O)=O` returned a Ki at Protease of 6 nM. The molecule further yielded an IC50 in experiment [8] of 200 nM.
For `COc1ccc2c(c1)OCCC/C=C/CC[C@@H](C)CN(C[C@@H](O)[C@H](Cc1ccccc1)NC(=O)O[C@H]1CO[C@H]3OCC[C@H]31)S2(=O)=O`, in that order: 2.8 nM and 6.3 nM.
For `COc1ccc2c(c1)OCCCCCCC[C@@H](C)CN(C[C@@H](O)[C@H](Cc1ccccc1)NC(=O)O[C@H]1CO[C@H]3OCC[C@H]31)S2(=O)=O`, in that order: 3.7 nM and 650 nM.
The like results for `COc1ccc2c(c1)OCCC/C=C\CC[C@H](C)CN(C[C@@H](O)[C@H](Cc1ccccc1)NC(=O)O[C@H]1CO[C@H]3OCC[C@H]31)S2(=O)=O` were, in that order, 0.31 nM and 9 nM.
On Protease, `COc1ccc2c(c1)OCCC/C=C/CC[C@H](C)CN(C[C@@H](O)[C@H](Cc1ccccc1)NC(=O)O[C@H]1CO[C@H]3OCC[C@H]31)S2(=O)=O` came in with a Ki of 0.15 nM. In experiment [8], this molecule showed an IC50 of 52 nM.
For `COc1ccc2c(c1)OCCCCCCCCCCN(C[C@@H](O)[C@H](Cc1ccccc1)NC(=O)O[C@H]1CO[C@H]3OCC[C@H]31)S2(=O)=O`, the affinity on Protease, expressed as Ki, was 0.82 nM. The same molecule registered an IC50 in experiment [8] of 318 nM.
For `COc1ccc2c(c1)OCCCCCCC[C@H](C)CN(C[C@@H](O)[C@H](Cc1ccccc1)NC(=O)O[C@H]1CO[C@H]3OCC[C@H]31)S2(=O)=O`, in that order: 0.07 nM and 170 nM.
